Some test systems named below: A549 NSCLC; PC-3 prostate; TK-10 renal; SK-OV-3 ovarian; SK-MEL-28 melanoma; MDA-MB-231 breast; SK-MEL-5 melanoma; BT-549 breast; NCI-H23 lung; SN12C renal.
Experiment in all cases: NCI tumour cell line growth inhibition, 48 h

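1) Cells in 96-well plates. 2) Compound, 48 h, 5 concentrations. 3) Linear interpolation between surrounding doses. 4) Unreached endpoint = highest concentration. Definition used: TGI = concentration required for complete inhibition of growth.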

As for `CC(=O)n1nc(-c2nc3ccccc3nc2Cl)cc1Cl`, the TGI in the assay on A549 NSCLC is greater than 88.5 µM; in the assay with PC-3 prostate, greater than 100 µM; in the assay on TK-10 renal, greater than 100 µM; with SK-OV-3 ovarian, greater than 77.7 µM; in the assay with SK-MEL-28 melanoma, greater than 86.3 µM; in the assay with MDA-MB-231 breast, greater than 100 µM. In addition, the TGI is 16.1 µM with SK-MEL-5 melanoma, 28.8 µM in the assay on BT-549 breast, 49.6 µM in the assay with NCI-H23 lung and greater than 65.9 µM in the assay on SN12C renal.

`COc1ccc2nc3cc([N+](=O)[O-])ccc3c(NNc3ccc(Cl)cc3)c2c1`: the TGI was greater than 85 µM with A549 NSCLC; greater than 77.5 µM in the assay on PC-3 prostate; 5.16 µM in the assay on TK-10 renal; greater than 100 µM in the assay on SK-OV-3 ovarian; greater than 100 µM with SK-MEL-28 melanoma; greater than 73.1 µM with MDA-MB-231 breast. Also, the TGI was 36.2 µM with SK-MEL-5 melanoma, greater than 92.1 µM in the assay on BT-549 breast, greater than 100 µM in the assay on NCI-H23 lung and 98 µM with SN12C renal.

On to `NC1=CC(C(=O)c2ccncc2)c2nc3ccccc3nc21` (stereo not given), for which the TGI with A549 NSCLC, in the assay on PC-3 prostate, in the assay on TK-10 renal, with SK-OV-3 ovarian, with SK-MEL-28 melanoma and in the assay with MDA-MB-231 breast was greater than 100 µM in each case. The TGI in the assay on SK-MEL-5 melanoma, with BT-549 breast, with NCI-H23 lung and in the assay on SN12C renal was greater than 100 µM each time.

As to `COc1cccc(-c2cccc(SC)n2)n1`, the TGI in the assay with A549 NSCLC, with PC-3 prostate, in the assay with TK-10 renal, in the assay on SK-OV-3 ovarian, in the assay with SK-MEL-28 melanoma and with MDA-MB-231 breast was greater than 100 µM throughout. Moreover, the TGI with SK-MEL-5 melanoma was 44 µM; in the assay with BT-549 breast, greater than 100 µM; in the assay on NCI-H23 lung it was greater than 100 µM; with SN12C renal it was greater than 100 µM.

Take `C/C(=N\NS(=O)(=O)c1ccc(C)cc1)C(CN(C)C)C(c1ccccc1)c1c(O)c2ccccc2oc1=O` (stereo not given): the TGI in the assay with A549 NSCLC, in the assay with PC-3 prostate, in the assay on TK-10 renal, in the assay with SK-OV-3 ovarian, in the assay on SK-MEL-28 melanoma and in the assay on MDA-MB-231 breast was greater than 100 µM each time. Further, the TGI with SK-MEL-5 melanoma, in the assay on BT-549 breast, with NCI-H23 lung and in the assay on SN12C renal was greater than 100 µM in each case.

Take `COc1ccc(-n2c3c(c4cc(O)ccc42)C(=O)c2ccccc2C3=O)cc1`: the TGI with A549 NSCLC is greater than 100 µM; with PC-3 prostate, 87.3 µM; in the assay with TK-10 renal, 31.1 µM; with SK-OV-3 ovarian, 2.73 µM; in the assay on SK-MEL-28 melanoma, greater than 100 µM; in the assay on MDA-MB-231 breast, 13.6 µM. The TGI in the assay with SK-MEL-5 melanoma was greater than 100 µM; in the assay with BT-549 breast it was 31.5 µM; in the assay on NCI-H23 lung it was greater than 100 µM; with SN12C renal it was 92.9 µM.

For `O=C1Nc2ccccc2[C@]12C[C@H]2c1ccccn1`, the TGI with A549 NSCLC, in the assay with PC-3 prostate, with TK-10 renal, with SK-OV-3 ovarian, in the assay on SK-MEL-28 melanoma and in the assay on MDA-MB-231 breast was greater than 100 µM in each case. Moreover, the TGI with SK-MEL-5 melanoma, in the assay on BT-549 breast, in the assay with NCI-H23 lung and with SN12C renal was greater than 100 µM each time.

On to `COc1ccc(C2SC(N)=Nc3c2c(C)nn3C(=O)c2ccc(Cl)cc2)cc1` (stereo not given), for which the TGI with A549 NSCLC, in the assay with PC-3 prostate, in the assay with TK-10 renal, in the assay on SK-OV-3 ovarian, with SK-MEL-28 melanoma and in the assay on MDA-MB-231 breast was greater than 10 µM in each case. Moreover, the TGI with SK-MEL-5 melanoma, in the assay with BT-549 breast, in the assay on NCI-H23 lung and in the assay with SN12C renal was greater than 10 µM throughout.

In the case of `NC(C(F)(F)F)(C(F)(F)F)P(=O)(c1ccccc1)c1ccccc1`, the TGI in the assay on A549 NSCLC, with PC-3 prostate, in the assay with TK-10 renal, in the assay with SK-OV-3 ovarian, with SK-MEL-28 melanoma and with MDA-MB-231 breast was greater than 100 µM throughout. The TGI with SK-MEL-5 melanoma, with BT-549 breast, with NCI-H23 lung and in the assay on SN12C renal was greater than 100 µM each time.

As to `CCCC(=O)N/S(=N/S(=O)(=O)c1ccc(Cl)cc1)C(Cl)(Cl)Cl` (stereo not given), the TGI in the assay on A549 NSCLC, with PC-3 prostate, in the assay on TK-10 renal, with SK-OV-3 ovarian, with SK-MEL-28 melanoma and with MDA-MB-231 breast was greater than 100 µM each time. In addition, the TGI with SK-MEL-5 melanoma, with BT-549 breast, with NCI-H23 lung and with SN12C renal was greater than 100 µM each time.

For `Nc1nc(Cl)cc(NCC2(CO)CCC2)n1`, the TGI in the assay with A549 NSCLC, with PC-3 prostate, with TK-10 renal, in the assay with SK-OV-3 ovarian, with SK-MEL-28 melanoma and in the assay on MDA-MB-231 breast was greater than 100 µM in each case. Moreover, the TGI in the assay with SK-MEL-5 melanoma, in the assay with BT-549 breast, with NCI-H23 lung and in the assay with SN12C renal was greater than 100 µM in each case.

Consider `Cc1cnc2[nH]c(-c3ccc(F)cc3)cc(=O)c2c1`, for which the TGI in the assay on A549 NSCLC is greater than 100 µM; in the assay on PC-3 prostate it was greater than 100 µM; with TK-10 renal, greater than 100 µM; in the assay with SK-OV-3 ovarian, greater than 68 µM; in the assay with SK-MEL-28 melanoma, greater than 100 µM; in the assay on MDA-MB-231 breast, greater than 100 µM. The TGI in the assay with SK-MEL-5 melanoma, with BT-549 breast, in the assay on NCI-H23 lung and in the assay on SN12C renal was greater than 100 µM in each case.

`Cc1cn(CC2=NCC(C)(C)CN2)c(=O)[nH]c1=O`: the TGI in the assay on A549 NSCLC, in the assay on PC-3 prostate, with TK-10 renal, in the assay on SK-OV-3 ovarian, in the assay on SK-MEL-28 melanoma and in the assay on MDA-MB-231 breast was greater than 100 µM each time. Further, the TGI with SK-MEL-5 melanoma, with BT-549 breast, with NCI-H23 lung and in the assay on SN12C renal was greater than 100 µM throughout.
